From EP2752414A1, “Crystalline form of apixaban” (Sandoz AG, priority 2013, dated 2014)
≈ marks a conversion by molar mass, not a printed value.

What was measured:
[1] = Physical stability of the crystalline form on storage at room atmosphere conditions; format: physicochemical; settings: after 8 months stored at room atmosphere conditions
Source text: For a pharmaceutical use a solubility of the form which active pharmaceutical ingredient forms is a criterion of exceptional importance under certain circumstances depending on the choice of formulation or the choice of manufacturing process. For drugs which are to be taken orally it is, in general, very important that active pharmaceutical ingredients are sufficiently soluble and bioavailable. Apixaban is such a drug, i.e. characterized by a low solubility in aqueous media. Unexpectedly, improved solubility of crystalline polymorph Form A of apixaban contributes to sufficient bioavailability of apixaban containing drugs. At the same time, a high physical stability of crystalline Form A is preserved.

[2] = Equilibrium solubility, shake flask method (European Pharmacopeia); format: physicochemical; settings: for Equilibrium solubility / solubility thermodynamic at 24 h: shaking at 400 rpm for 24 hours; for solubility thermodynamic at 24 h: aqueous buffer, 37 °C, thermodynamic from solid
Experimental: As used herein, the term "equilibrium solubility" refers to the maximum solubility of apixaban in various aqueous media of buffers of pH 1.2, 4.5 and 6.8 at 37 °C after 24 hours. The shaking is carried out at 400 rpm.
(§1) Equilibrium solubility of crystalline polymorphic Form A of apixaban and references apixaban Form N-1 was performed in various aqueous media of buffers of pH 1.2, 4.5 and 6.8 at 37°C. The solubility was measured using "shake flask" method described in European Pharmacopeia. The shaking was carried out at 400 RMP for 24 hours. Table 2: Equilibrium solubility of crystalline polymorphic Form A of apixaban and reference apixaban Form N-1 in various aqueous media of buffers.
as §1, with “rmp” for “RMP”

| Equilibrium solubility ([2]; aqueous buffer pH 1.2, 37°C) | Equilibrium solubility ([2]; aqueous buffer pH 4.5, 37°C) | Equilibrium solubility ([2]; aqueous buffer pH 6.8, 37°C) | comparison of equilibrium solubility with reference polymorph Form N-1 ([2]; aqueous buffers pH 1.2, 4.5 and 6.8, 37°C (Table 2)) | solubility thermodynamic at 24 h ([2]; pH 1.2, simulated gastric fluid, aqueous buffer pH 1.2, 37°C) | solubility thermodynamic at 24 h ([2]; pH 4.5, aqueous buffer, aqueous buffer pH 4.5, 37°C) | Compound | physical stability (crystalline structure) [1] |
| --- | --- | --- | --- | --- | --- | --- | --- |
| 58 µg/mL | 74 µg/mL | 72 µg/mL | higher solubility | – | – | COc1ccc(-n2nc(C(N)=O)c3c2C(=O)N(c2ccc(N4CCCCC4=O)cc2)CC3)cc1 [Form A, 1-(4-methoxyphenyl)-7-oxo-6-(4-(2-oxopiperidin-1-yl)phenyl)-4,5,6,7-tetrahydro-1H-pyrazolo[3,4-c]pyridine-3-carboxamide] | the crystalline structure remains unchanged |
| – | – | 30 µg/mL | – | 44 µg/mL (≈ 95.8 µM) | 53 µg/mL (≈ 115 µM) | COc1ccc(-n2nc(C(N)=O)c3c2C(=O)N(c2ccc(N4CCCCC4=O)cc2)CC3)cc1 [Form N-1, 1-(4-methoxyphenyl)-7-oxo-6-(4-(2-oxopiperidin-1-yl)phenyl)-4,5,6,7-tetrahydro-1H-pyrazolo[3,4-c]pyridine-3-carboxamide, reference compound] | – |
